The CheMixHub viscosity set

Test: xn = mol fraction of the nth substance listed

CC(O)CN(C)C (configuration not stated) + NCc1ccccc1
viscosity [mPa·s], 101 kPa
Settings | x1 = 0.1003 | x1 = 0.1998 | x1 = 0.3 | x1 = 0.4001 | x1 = 0.5002 | x1 = 0.5999 | x1 = 0.7 | x1 = 0.8 | x1 = 0.8997
293.15 K | 1.87 | 1.91 | 1.92 | 1.91 | 1.88 | 1.84 | 1.78 | 1.7 | 1.6
303.15 K | 1.5 | 1.51 | 1.51 | 1.5 | 1.48 | 1.44 | 1.39 | 1.33 | 1.25
313.15 K | 1.23 | 1.23 | 1.22 | 1.21 | 1.18 | 1.14 | 1.1 | 1.05 | 1
323.15 K | 1.06 | 1.05 | 1.03 | 1.01 | 0.98 | 0.95 | 0.91 | 0.87 | 0.83

CC1CCCCC1=O (configuration not stated) + NC=O
viscosity [mPa·s], 100 kPa
Settings | x1 = 0.1005 | x1 = 0.1979 | x1 = 0.2917 | x1 = 0.4002 | x1 = 0.5089 | x1 = 0.6019 | x1 = 0.6999 | x1 = 0.8001 | x1 = 0.9001
303.15 K | 2.822 | 2.768 | 2.712 | 2.644 | 2.575 | 2.513 | 2.446 | 2.375 | 2.302
308.15 K | 2.583 | 2.549 | 2.513 | 2.468 | 2.42 | 2.378 | 2.331 | 2.281 | 2.228
313.15 K | 2.346 | 2.332 | 2.315 | 2.291 | 2.265 | 2.242 | 2.217 | 2.188 | 2.154

CCCCCC[n+]1ccn(C)c1.O=[N+]([O-])[O-] + CCC(C)O
Settings | viscosity [mPa·s]
298.15 K, 100 kPa, x1 = 0.7392 | 237.5

O=[N+]([O-])c1ccccc1O + Cc1ccccc1
viscosity [mPa·s], 101 kPa
Settings | 303.15 K | 308.15 K | 313.15 K | 318.15 K | 323.15 K
x1 = 0.5473 | 1.278 | 1.182 | 1.088 | 1.011 | 0.942
x1 = 0.7633 | – | 1.838 | 1.672 | 1.528 | 1.411

CC1CCCCC1=O (configuration not stated) + CN(C)c1ccccc1
viscosity [mPa·s], 101 kPa
Settings | 303.15 K | 308.15 K
x2 = 0.0798 | 2.088 | 2.021
x2 = 0.1302 | 2.007 | 1.934
x2 = 0.2014 | 1.899 | 1.82
x2 = 0.2705 | 1.801 | 1.718
x2 = 0.3456 | 1.704 | 1.618
x2 = 0.4121 | 1.625 | 1.536
x2 = 0.4952 | 1.536 | 1.446
x2 = 0.5625 | 1.471 | 1.379
x2 = 0.6325 | 1.41 | 1.318
x2 = 0.7025 | 1.355 | 1.264
x2 = 0.7652 | 1.31 | 1.221
x2 = 0.8312 | 1.268 | 1.183
x2 = 0.9025 | 1.226 | 1.148

CC(=O)N(C)C + CO
viscosity [mPa·s], 101 kPa
Settings | 303.15 K | 308.15 K | 313.15 K | 318.15 K
x1 = 0.0976 | 0.572 | – | – | –
x1 = 0.1993 | 0.626 | – | – | –
x1 = 0.2967 | 0.673 | – | – | –
x1 = 0.3971 | 0.712 | – | – | –
x1 = 0.4998 | 0.75 | – | – | –
x1 = 0.5962 | 0.78 | – | – | –
x1 = 0.648 | 0.795 | – | – | –
x1 = 0.7762 | 0.829 | – | – | –
x1 = 0.8699 | 0.846 | – | – | –
x2 = 0.125 | 0.872 | 0.795 | 0.737 | 0.693
x2 = 0.232 | 0.856 | 0.784 | 0.725 | 0.675
x2 = 0.324 | 0.832 | 0.763 | 0.709 | 0.655
x2 = 0.405 | 0.797 | 0.733 | 0.682 | 0.625
x2 = 0.644 | 0.697 | 0.647 | 0.598 | 0.539
x2 = 0.915 | 0.567 | 0.531 | 0.492 | 0.431
x2 = 0.939 | 0.544 | 0.507 | 0.471 | 0.413
x2 = 0.961 | 0.529 | 0.494 | 0.458 | 0.398

CC(=O)N(C)C + CN(C)C=O
viscosity [mPa·s], 101 kPa
Settings | 298.15 K | 308.15 K | 318.15 K
x1 = 0.05 | 0.809 | 0.718 | 0.642
x1 = 0.1062 | 0.816 | 0.724 | 0.647
x1 = 0.15 | 0.822 | 0.729 | 0.652
x1 = 0.2171 | 0.831 | 0.737 | 0.658
x1 = 0.26 | 0.837 | 0.742 | 0.662
x1 = 0.3094 | 0.843 | 0.747 | 0.666
x1 = 0.35 | 0.849 | 0.752 | 0.67
x1 = 0.405 | 0.856 | 0.758 | 0.675
x1 = 0.455 | 0.863 | 0.763 | 0.679
x1 = 0.5042 | 0.87 | 0.769 | 0.684
x1 = 0.55 | 0.876 | 0.774 | 0.688
x1 = 0.6071 | 0.883 | 0.781 | 0.694
x1 = 0.655 | 0.89 | 0.786 | 0.698
x1 = 0.714 | 0.898 | 0.793 | 0.704
x1 = 0.75 | 0.903 | 0.797 | 0.707
x1 = 0.7968 | 0.909 | 0.803 | 0.712
x1 = 0.85 | 0.916 | 0.809 | 0.717
x1 = 0.9112 | 0.925 | 0.816 | 0.723
x1 = 0.95 | 0.93 | 0.82 | 0.727
